Laboratory results reported in patent US4847306A, “Antihypercholesterolemic compounds” (Merck & Co., Inc., priority 1988, dated 1989).

The compounds below were run on HMG-CoA reductase (assay: HMG-CoA Reductase Inhibition Assay (in vitro, intrinsic inhibitory activity)). Settings: compactin assigned a value of 100; IC50 of test compound compared with that of compactin determined simultaneously; tested as sodium salt of dihydroxy acid form; solubilized rat liver microsomal enzyme.
Type: biochemical
Description: The intrinsic HMG-CoA reductase inhibition activity of the claimed compounds is measured in the in vitro protocol published in J. Med. Chem., 28, P. 347-358 (1985) and described below:
Isolation of HMG-CoA Reductase. Male Holtzman Sprague-Dawley rate (225-250 g) were kept on reversed lighting and fed Purina rat chow containing 3% cholestyramine for 7 days preceding their sacrifice by CO2 asphyxiation. Livers were removed 6 hours into the dark cycle and used immediately to prepare microsomes. HMG-CoA reductase was solubilized from the freshly prepared microsome by the method of Heller and Shrewsbury [J. Boil Chem., 1976, 251,3815], and purified through the second ammonium sulfate precipitation step as described by Kleinsek et al., [Proc. Natl. Acad. Sci. USA, 1977, 74, 1431]. The enzyme preparation was tested for HMG-CoA reductase potency and diluted with 100 mM phosphate buffer (pH 7.2) so that 100 μL of the enzyme solution, when added to the assay control, gave a value of 50,000-60,000 dpm. The enzyme preparation was stored at -80° C.
HMG-CoA Reductase Inhibition Assay. The assay is essentially the procedure of Shefer et al., [J. Lipid Res., 1972, 13, 402]. The complete assay medium contained the following in a total volume of 0.8 mL: phosphate buffer, pH 7.2, 100 mM; MgCl2, 3 mM; NADP, 3 mM; glucose 6-phospate, 10 mM; glucose-6-phosphate dehydrogenase, 3 enzyme units; reduced glutathione, 50 mM; HMG-CoA (glutaryl-3-^14C, New England Nuclear), 0.2 mM (0.1 μCi); and partially purified enzyme stock solution, 100 μL.
Test compounds or compactin (after first being converted to the sodium salt of their dihydroxy acid form in situ by addition of 1N NaOH (1 equiv)) were added to the assay system in 10-μL volumes at multiconcentration levels. After a 40-minute incubation at 37° C. with shaking and exposure to air, the reaction was stopped by the addition of 0.4 mL of 8N HCl. After an additional 30-minute incubation period at 37° C. to ensure the complete lactonization of mevalonic acid to mevalonolactone, 0.2 mL of the mixture was added to an 0.5×5.0 cm column containing 100-200-mesh Bio-Rex 5, chloride form (Bio-Rad), wetted with distilled water, as described by Alberts et al. [J. Proc. Natl. Acad. Sci. U.S.A., 1980, 77, 3957]. The unreacted [^14 C]HMG-CoA was absorbed on the resin and the [^14 C]mevalonolacetone was eluted with distilled water (2×1 mL) directly into 7-mL scintillation vials. Five milliliters of Aquasol-2 (New England Nuclear) was added to each vial, and radioactivity was measured in a Packard Tri Carb Prias scintillation counter. IC50 values were determined by plotting percentage inhibition against test compound concentration and fitting a straight line to the resulting data by using the least-squares method. For estimation of relative inhibitory potencies, compactin was assigned a value of 100 and the IC50 value of the test compound was compared with that of compactin determined simultaneously.

SMILES | Relative Potency
C[C@H]1C=C2C=C[C@H](C)[C@H](CC[C@@H](O)C[C@@H](O)CC(=O)O)[C@H]2[C@@H](OC(=O)C2(Cc3ccc(O)cc3)CCC2)C1 | 200
C[C@H]1C=C2C=C[C@H](C)[C@H](CC[C@@H](O)C[C@@H](O)CC(=O)O)[C@H]2[C@@H](OC(=O)C2(Cc3ccccc3)CCC2)C1 | 156
C[C@H]1C=C2C=C[C@H](C)[C@H](CC[C@@H](O)C[C@@H](O)CC(=O)O)[C@H]2[C@@H](OC(=O)C2(C)CCCC2)C1 | 188
CSC1(C(=O)O[C@H]2C[C@@H](C)C=C3C=C[C@H](C)[C@H](CC[C@@H](O)C[C@@H](O)CC(=O)O)[C@H]32)CCCC1 | 167
C[C@H]1C=C2C=C[C@H](C)[C@H](CC[C@@H](O)C[C@@H](O)CC(=O)O)[C@H]2[C@@H](OC(=O)C2(C)CCCCC2)C1 | 217

Further lines, results first:

Relative Potency | SMILES
76 | C[C@H]1C=C2C=C[C@H](C)[C@H](CC[C@@H](O)C[C@@H](O)CC(=O)O)[C@H]2[C@@H](OC(=O)C2(C)CC2)C1
171 | C[C@H]1C=C2C=C[C@H](C)[C@H](CC[C@@H](O)C[C@@H](O)CC(=O)O)[C@H]2[C@@H](OC(=O)C2(C)CCC2)C1
240 | CSC1(C(=O)O[C@H]2C[C@@H](C)C=C3C=C[C@H](C)[C@H](CC[C@@H](O)C[C@@H](O)CC(=O)O)[C@H]32)CCC1
100 | C[C@H]1C=C2C=C[C@H](C)[C@H](CC[C@@H](O)C[C@@H](O)CC(=O)O)[C@H]2[C@@H](OC(=O)C2(CCCO)CCC2)C1
88 | C[C@H]1C=C2C=C[C@H](C)[C@H](CC[C@@H](O)C[C@@H](O)CC(=O)O)[C@H]2[C@@H](OC(=O)C2(CO)CCC2)C1
